This note sets out measurements from patent US20230127839A1, “COMPOUNDS AND COMPOSITIONS FOR TREATING CONDITIONS ASSOCIATED WITH STING ACTIVITY” (IFM Due, Inc., priority 2019, published 2023).

The assay has as its target T1, hSTING (Homo sapiens, UniProt Q86WV6, G230A/H232R/R293Q/R71H).
T1 construct: host or cells: THP1-Dual KO-IFNAR2 cells
Description: STING reporter assay (luciferase) in THP1-Dual KO-IFNAR2 cells stimulated with 2'3'cGAMP. Format: cell-based. As to conditions: 2'3'cGAMP 15 μM, 24 h, luciferase reporter activity. The method, then: STING pathway activation by the compounds described herein is measured using THP1-Dual™ cells (KO-IFNAR2).
THP1-Dual™ KO-IFNAR2 Cells (obtained from invivogen) are maintained in RPMI, 10% FCS, 5 ml P/S, 2 mM L-glut, 10 mM Hepes, and 1 mM sodium pyruvate.
Compounds are spotted in empty 384 well tissue culture plates (Greiner 781182) by Echo for a final concentration of 0.0017-100 μM. Cells are plated into the TC plates at 40 μL per well, 2×10E6 cells/mL. For activation with STING ligand, 2′3′cGAMP (MW 718.38, obtained from Invivogen), is prepared in Optimem media.
The following solutions are prepared for each 1×384 plate: • Solution A: 2 mL Optimem with one of the following stimuli: • 60 uL of 10 mM 2′3′cGAMP->150 μM stock • Solution B: 2 mL Optimem with 60 μL Lipofectamine 2000->Incubate 5 min at RT
2 mL of solution A and 2 ml Solution B is mixed and incubated for 20 min at room temperature (RT). 20 uL of transfection solution (A+B) is added on top of the plated cells, with a final 2′3′cGAMP concentration of 15 μM. The plates are then centrifuged immediately at 340 g for 1 minute, after which they are incubated at 37° C., 5% CO2, >98% humidity for 24 h. Luciferase reporter activity is then measured. EC50 values are calculated by using standard methods known in the art.
Luciferase reporter assay: 10 μL of supernatant from the assay is transferred to white 384-plate with flat bottom and squared wells. One pouch of QUANTI-Luc™ Plus us dissolved in 25 mL of water. 100 μL of QLC Stabilizer per 25 mL of QUANTI-Luc™ Plus solution is added. 50 μL of QUANTI-Luc™ Plus/QLC solution per well is then added. Luminescence is measured on a Platereader (e.g., Spectramax I3X (Molecular Devices GF3637001)).
Luciferase reporter activity is then measured. EC50 values are calculated by using standard methods known in the art.
Background: In a reporter assay the amount or activity of a reporter protein is the signal.

T1 sequence (Q86WV6 whole entry R71H/G230A/H232R/R293Q): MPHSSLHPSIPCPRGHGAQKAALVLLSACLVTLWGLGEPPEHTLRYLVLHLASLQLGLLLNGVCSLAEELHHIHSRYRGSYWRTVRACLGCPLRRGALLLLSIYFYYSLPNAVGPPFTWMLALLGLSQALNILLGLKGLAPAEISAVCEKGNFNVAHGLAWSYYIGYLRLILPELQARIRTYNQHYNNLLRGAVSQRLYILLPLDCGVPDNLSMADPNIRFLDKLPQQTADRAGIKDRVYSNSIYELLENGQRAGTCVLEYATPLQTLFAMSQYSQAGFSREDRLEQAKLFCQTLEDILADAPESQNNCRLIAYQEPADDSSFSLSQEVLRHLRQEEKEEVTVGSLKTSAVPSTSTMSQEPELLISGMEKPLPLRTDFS

For the molecule `C[C@@H]1CN(c2ncc(NC(=O)Nc3c[nH]c4ccc(Cl)cc34)cc2Cl)C[C@@H](C)N1` [Compound 291, 1-(5-chloro-1H-indol-3-yl)-3-(5-chloro-6-((3R,5R)-3,5-dimethylpiperazin-1-yl)pyridin-3-yl)urea], the concentration for a half-maximal effect (EC50) is 1000 to 5000 nM.
As for `CSc1ccc2[nH]cc(NC(=O)Nc3cnc(N4CCC(F)(F)CC4)c(Cl)c3)c2c1` [Compound 183, 1-(5-chloro-6-(4,4-difluoropiperidin-1-yl)pyridin-3-yl)-3-(5-(methylthio)-1H-indol-3-yl)urea], the EC50 was in the range of 40 to 200 nM.
As to `O=C(Nc1cnc(N2CCC(F)(F)CC2)cn1)Nc1c[nH]c2cc(F)c(F)cc12` [Compound 194, 1-(5,6-difluoro-1H-indol-3-yl)-3-(5-(4,4-difluoropiperidin-1-yl)pyrazin-2-yl)urea], the EC50 was in the range of 200 to 1000 nM.
In turn, `O=C(Nc1cnc(C2CC(F)(F)C2)c(F)c1)Nc1c[nH]c2ccc(Cl)cc12` [Compound 227, 1-(5-chloro-1H-indol-3-yl)-3-(6-(3,3-difluorocyclobutyl)-5-fluoropyridin-3-yl)urea] yielded an EC50 of 40 to 200 nM.
For the molecule `O=C(Nc1cnn(C2CC(F)(F)C2)c1)Nc1c[nH]c2ccc(Cl)cc12` [Compound 215, 1-(5-chloro-1H-indol-3-yl)-3-(1-(3,3-difluorocyclobutyl)-1H-pyrazol-4-yl)urea], the concentration for a half-maximal effect (EC50) lay in the range of 200 to 1000 nM.
With `Cc1cc(NC(=O)Nc2c[nH]c3ccc(F)cc23)cnc1N1CCC(F)(F)CC1` [Compound 195, 1-(6-(4,4-difluoropiperidin-1-yl)-5-methylpyridin-3-yl)-3-(5-fluoro-1H-indol-3-yl)urea], the EC50 was in the range of 40 to 200 nM.
With `C[C@H]1CN(c2ncc(NC(=O)Nc3c[nH]c4cc(F)c(F)cc34)cc2Cl)CCO1` [Compound 188, (S)-1-(5-chloro-6-(2-methylmorpholino)pyridin-3-yl)-3-(5,6-difluoro-1H-indol-3-yl)urea], the EC50 was 200 to 1000 nM.
`CN(C(=O)Nc1c[nH]c2ccc(Cl)cc12)c1cnc(N2CCC(F)(F)CC2)c(Cl)c1` [Compound 258, 3-(5-chloro-1H-indol-3-yl)-1-(5-chloro-6-(4,4-difluoropiperidin-1-yl)pyridin-3-yl)-1-methylurea] came in with an EC50 of 200 to 1000 nM.
In turn, `O=C(Nc1cnc(N2CCC3(CCCCO3)CC2)c(Cl)c1)Nc1c[nH]c2cc(F)c(F)cc12` [Compound 176, 1-(5-chloro-6-(1-oxa-9-azaspiro[5.5]undecan-9-yl)pyridin-3-yl)-3-(5,6-difluoro-1H-indol-3-yl)urea] displayed an EC50 of 200 to 1000 nM.
Turning to `O=C(Nc1cnc(N2CCC(F)(F)CC2)c(F)c1)Nc1c[nH]c2ccc(Cl)cc12` [Compound 292, 1-(5-chloro-1H-indol-3-yl)-3-(6-(4,4-difluoropiperidin-1-yl)-5-fluoropyridin-3-yl)urea], the EC50 lay within 40 to 200 nM.
Molecule `O=C(Nc1cnc(C2CCC(F)(F)CC2)c(Cl)c1)Nc1c[nH]c2ccc(C(F)F)cc12` [Compound 159, 1-(5-chloro-6-(4,4-difluorocyclohexyl)pyridin-3-yl)-3-(5-(difluoromethyl)-1H-indol-3-yl)urea] yielded an EC50 of 40 to 200 nM.
With `N#Cc1cc(NC(=O)Nc2c[nH]c3cc(F)c(F)cc23)cnc1C1CC(F)(F)C1` [Compound 125, 1-(5-cyano-6-(3,3-difluorocyclobutyl)pyridin-3-yl)-3-(5,6-difluoro-1H-indol-3-yl)urea], the EC50 lay in the range of 200 to 1000 nM.
Regarding `COCCO[C@@H]1CCN(c2ncc(NC(=O)Nc3c[nH]c4cc(F)c(F)cc34)cc2Cl)C1` [Compound 185, (R)-1-(5-chloro-6-(3-(2-methoxyethoxy)pyrrolidin-1-yl)pyridin-3-yl)-3-(5,6-difluoro-1H-indol-3-yl)urea], the 50% effective concentration (EC50) fell in the range of 200 to 1000 nM.
`O=C(Nc1ccc(N2CCN(CC(F)(F)F)CC2)nc1)Nc1c[nH]c2ccccc12` [Compound 280, 1-(1H-indol-3-yl)-3-(6-(4-(2,2,2-trifluoroethyl)piperazin-1-yl)pyridin-3-yl)urea] came in with an EC50 of 200 to 1000 nM.
The value for `COc1cc(NC(=O)Nc2c[nH]c3cc(F)c(F)cc23)cnc1N1CC(F)(F)C1` [Compound 168, 1-(5,6-difluoro-1H-indol-3-yl)-3-(6-(3,3-difluoroazetidin-1-yl)-5-methoxypyridin-3-yl)urea] was 200 to 1000 nM; that for `O=C(Nc1cnc(C2CC(F)(F)C2)c(Cl)c1)Nc1c[nH]c2ccc(F)cc12` [Compound 277, 1-(5-chloro-6-(3,3-difluorocyclobutyl)pyridin-3-yl)-3-(5-fluoro-1H-indol-3-yl)urea] was 40 to 200 nM; that for `O=C(Nc1cnc(N2CCC(F)(F)CC2)c(Cl)c1)Nc1c[nH]c2ccc(Cl)cc12` [Compound 196, 1-(5-chloro-1H-indol-3-yl)-3-(5-chloro-6-(4,4-difluoropiperidin-1-yl)pyridin-3-yl)urea] was 40 to 200 nM.
The molecule `O=C(Nc1cnc(C2CCN(CCC(F)(F)F)C2)c(Cl)c1)Nc1c[nH]c2ccc(Cl)cc12` (centres unmarked) [Compound 242, 1-(5-chloro-1H-indol-3-yl)-3-(5-chloro-6-(1-(3,3,3-trifluoropropyl)pyrrolidin-3-yl)pyridin-3-yl)urea] came in with an EC50 of 40 to 200 nM.
`CC1(C)CN(c2ncc(NC(=O)Nc3c[nH]c4cc(F)c(F)cc34)cc2Cl)CCO1` [Compound 153, 1-(5-chloro-6-(2,2-dimethylmorpholino)pyridin-3-yl)-3-(5,6-difluoro-1H-indol-3-yl)urea] returned an EC50 of 40 to 200 nM.
Molecule `CCc1cc(NC(=O)Nc2c[nH]c3ccc(Cl)cc23)cnc1N1CCC(F)(F)CC1` [Compound 131, 1-(5-chloro-1H-indol-3-yl)-3-(6-(4,4-difluoropiperidin-1-yl)-5-ethylpyridin-3-yl)urea] showed an EC50 of 40 to 200 nM.
To `O=C(Nc1cnc(N2CCC3(CCCCO3)CC2)c(Cl)c1)Nc1c[nH]c2ccccc12` [Compound 281, 1-(5-chloro-6-(1-oxa-9-azaspiro[5.5]undecan-9-yl)pyridin-3-yl)-3-(1H-indol-3-yl)urea] belongs 40 to 200 nM; to `O=C(Nc1ccc(C2CN(CC(F)(F)F)C2)c(Cl)c1)Nc1c[nH]c2ccc(Cl)cc12` [Compound 218, 1-(5-chloro-1H-indol-3-yl)-3-(3-chloro-4-(1-(2,2,2-trifluoroethyl)azetidin-3-yl)phenyl)urea], 40 to 200 nM; to `COCCO[C@H]1CCN(c2ncc(NC(=O)Nc3c[nH]c4cc(F)c(F)cc34)cc2Cl)C1` [Compound 150, (S)-1-(5-chloro-6-(3-(2-methoxyethoxy)pyrrolidin-1-yl)pyridin-3-yl)-3-(5,6-difluoro-1H-indol-3-yl)urea], 200 to 1000 nM.
To `O=C(Nc1cnc(C2CCN(CC(F)(F)F)C2)c(Cl)c1)Nc1c[nH]c2ccc(Cl)cc12` (centres unmarked) [Compound 238, 1-(5-chloro-1H-indol-3-yl)-3-(5-chloro-6-(1-(2,2,2-trifluoroethyl)pyrrolidin-3-yl)pyridin-3-yl)urea] belongs 40 to 200 nM; to `COCCC1CCN(c2ncc(NC(=O)Nc3c[nH]c4cc(F)c(F)cc34)cc2Cl)CC1` [Compound 177, 1-(5-chloro-6-(4-(2-methoxyethyl)piperidin-1-yl)pyridin-3-yl)-3-(5,6-difluoro-1H-indol-3-yl)urea], 40 to 200 nM.
The value for `C[C@H]1CN(c2ncc(NC(=O)Nc3c[nH]c4ccc(Cl)cc34)cc2Cl)C[C@H](C)N1` [Compound 289, 1-(5-chloro-1H-indol-3-yl)-3-(5-chloro-6-((3S,5S)-3,5-dimethylpiperazin-1-yl)pyridin-3-yl)urea] was 5000 to 100000 nM.

For orientation: EC50 means the concentration needed to bring the measured effect to its halfway point.
